Laboratory results reported in ChEMBL document CHEMBL3421579, “Absolute configuration of labdane diterpenoids from Physalis nicandroides” (J Nat Prod, 2015).

Tests used:
Mus musculus [1] = assay: Anti-inflammatory activity in CD1 mouse model of TPA-induced ear edema assessed as inhibition of ear edema at 0.1 to 1 umol/ear applied to right ear 10 mins after TPA-stimulation and measured 4 hrs post compound dose relative to indomethacin; type: functional
Mus musculus [2] = assay: Anti-inflammatory activity in CD1 mouse model of TPA-induced ear edema assessed as inhibition of ear edema at 0.1 to 1 umol/ear applied to right ear 10 mins after TPA-stimulation and measured 4 hrs post compound dose; type: functional, organism-based
Mus musculus [3] = assay: Anti-inflammatory activity in CD1 mouse model of TPA-induced ear edema assessed as inhibition of ear edema at 1 umol/ear applied to right ear 10 mins after TPA-stimulation and measured 4 hrs post compound dose; type: functional

Row | Structure (SMILES) | Ratio IC50 (Mus musculus [1]) | IC50 (Mus musculus [2]) [µmol] | inhibition (INH) (Mus musculus [3]) [%]
1 | C/C(=C\CO)CC[C@@H]1[C@@]2(C)CCCC(C)(C)[C@@H]2CC[C@@]1(C)O | 2 | 0.67 | 64.32
2 | COc1ccc2c(c1)c(CC(=O)O)c(C)n2C(=O)c1ccc(Cl)cc1 [INDOMETHACIN] | – | 0.297 | –
3 | C=C1CC[C@H]2C(C)(C)CCC[C@]2(C)[C@H]1CC/C(=C/CO)CO | – | – | 41.35
